Results on six compounds are retold here after ChEMBL document CHEMBL4627390, “Effect of Temperature on 1H NMR Spectra, Antitrypanosomal Activity, Conformational Analysis, and Molecular Docking of Curine Derivatives from Berberis brevissima” (2020).

Values after ≈ are worked out from the molar mass of the structure shown.

Format in all cases: functional
For experiment [1], the system named is Trypanosoma brucei brucei. The experiment in a line: Antitrypanosomal activity against Trypanosoma brucei brucei TC427 trypomastigotes after 24 hrs by AlamarBlue assay. Conditions: TC427, 24 h. For orientation: The colour change of resazurin is a common sign of viable cells or microbes.
In experiment [2] the test system is Trypanosoma brucei brucei. The experiment in a line: Antitrypanosomal activity against Trypanosoma brucei brucei TC427 trypomastigotes assessed percent viability at 20 ug/ml after 24 hrs by AlamarBlue assay relative to DMSO.
Experiment [3] concerns Trypanosoma brucei brucei. The experiment in a line: Antitrypanosomal activity against Trypanosoma brucei brucei.

The term MIC denotes the lowest concentration found to suppress growth. `COc1cc2c3cc1Oc1cc(ccc1O)C[C@@H]1c4c(cc(OC)c(O)c4Oc4ccc(cc4)C[C@H]3N(C)CC2)CCN1C` returned an MIC in experiment [1] of 3.8 µM (≈ 2.26 µg/mL). Also, in experiment [2], the Activity is 1.9%.

Regarding `COc1cc2c3cc1Oc1cc(ccc1O)C[C@@H]1c4c(cc(OC)c(OC)c4Oc4ccc(cc4)C[C@H]3N(C)CC2)CCN1C`, the MIC in experiment [1] amounted to 2.6 µM (≈ 1.58 µg/mL). In experiment [2], this compound gave an Activity of 1.6%.

In experiment [3], `COc1ccc2c(c1OC)C(C(Cl)(Cl)Cl)N1CCc3cc4c(cc3C1=C2)OCO4` (stereo not given) came in with an MIC of 27.6 µM (≈ 12.6 µg/mL).

For the compound `COc1cc2c3cc1Oc1cc(ccc1OC(C)=O)C[C@@H]1c4c(cc(OC)c(OC)c4Oc4ccc(cc4)C[C@H]3N(C)CC2)CCN1C`, the MIC in experiment [1] stood at 2.3 µM (≈ 1.5 µg/mL). In addition, the Activity in experiment [2] was found to be 1.4%.

The compound `COc1cc2c3cc1Oc1cc(cc([N+](=O)[O-])c1O)C[C@@H]1c4c(cc(OC)c(OC)c4Oc4ccc(cc4)C[C@H]3N(C)CC2)CCN1C` gave an MIC in experiment [1] of 2.2 µM (≈ 1.44 µg/mL). This compound also came in with an Activity in experiment [2] of 1.5%.

As for `COc1ccc2cc3[n+](cc2c1OC)CCc1cc2c(cc1-3)OCO2` [BERBERINE], the MIC in experiment [3] was determined as 74.4 µM. That is a double-digit micromolar value.
